Among the test systems are SK-MEL-5 melanoma; SNB-19 CNS; COLO 205 colon; HOP-92 NSCLC; OVCAR-5 ovarian; HCT-116 colon; MOLT-4 leukemia; MDA-N; SN12C renal; ACHN renal; SF-268 CNS; MDA-MB-435; HCC-2998 colon.
What all share (experiment): NCI-60 cell line screen, 48 h

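Assay format: 96-well plates, 48-hour exposure. TGI: concentration producing complete growth inhibition.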

Take `CCOP1(=O)CC(C)=C(Cl)C(O)C1` (stereo not drawn): the TGI in the experiment with SK-MEL-5 melanoma, in the experiment with SNB-19 CNS, in the experiment with COLO 205 colon, in the experiment on HOP-92 NSCLC, in the experiment on OVCAR-5 ovarian and in the experiment with HCT-116 colon was more than 100 µM in each case. Besides, the TGI in the experiment with MOLT-4 leukemia, in the experiment on MDA-N, in the experiment on SN12C renal, in the experiment with ACHN renal, in the experiment on SF-268 CNS and in the experiment with MDA-MB-435 was more than 100 µM throughout. Further, in the experiment with HCC-2998 colon, the TGI is more than 100 µM.

Take `COC(=O)C(CCSC)NC(=O)CNC(=O)CSc1nnc(COc2ccc(Cl)cc2)n1-c1ccccc1` (stereo not drawn): the TGI with SK-MEL-5 melanoma is 31.4 µM; with SNB-19 CNS it was more than 100 µM; with COLO 205 colon, 33.6 µM; in the experiment on HOP-92 NSCLC it was 32 µM; with OVCAR-5 ovarian it was 34.7 µM; in the experiment on HCT-116 colon, 30.5 µM. The TGI with MOLT-4 leukemia was more than 100 µM; with MDA-N it was 32.7 µM; in the experiment on SN12C renal it was 32.4 µM; with ACHN renal, 30.7 µM; in the experiment on SF-268 CNS, 32.7 µM; with MDA-MB-435 it was 37.9 µM. Besides, in the experiment with HCC-2998 colon, the TGI was found to be 27 µM.

For `Clc1cc(Cl)cc(N=C/C=C/Nc2cc(Cl)cc(Cl)c2)c1`, the TGI was 34.2 µM in the experiment with SK-MEL-5 melanoma; 53.8 µM in the experiment with SNB-19 CNS; 30.2 µM with COLO 205 colon; more than 100 µM in the experiment with HOP-92 NSCLC; 51.9 µM in the experiment with OVCAR-5 ovarian; 30.1 µM in the experiment on HCT-116 colon. In addition, the TGI in the experiment on MOLT-4 leukemia was 49.6 µM; with MDA-N, 38.6 µM; with SN12C renal, 38.8 µM; in the experiment with ACHN renal, 44.7 µM; with SF-268 CNS it was 47.6 µM; in the experiment with MDA-MB-435 it was 35.9 µM. In the experiment with HCC-2998 colon, the TGI was 33.4 µM.

Regarding `O=[N+]([O-])/C(C(Cl)=C(Cl)Cl)=C(/Cl)SCc1ccccc1`, the TGI with SK-MEL-5 melanoma was determined as 20.8 µM; in the experiment with SNB-19 CNS it was 43.2 µM; with COLO 205 colon, 4.49 µM; in the experiment on HOP-92 NSCLC it was 9.01 µM; in the experiment with OVCAR-5 ovarian, 17.5 µM; in the experiment with HCT-116 colon it was 3.88 µM. Moreover, the TGI with MOLT-4 leukemia was found to be 1.25 µM; in the experiment on MDA-N, 4.23 µM; in the experiment on SN12C renal, 12.9 µM; in the experiment on ACHN renal, 9.06 µM; in the experiment on SF-268 CNS, 44.6 µM; with MDA-MB-435, 5.12 µM. The compound further gave a TGI with HCC-2998 colon of 43.5 µM.

For the compound `O=[N+]([O-])c1ccc(C(=S)Nc2ccccc2)o1`, the TGI came to 23.2 µM in the experiment on SK-MEL-5 melanoma; 17.3 µM in the experiment on SNB-19 CNS; 2.79 µM with COLO 205 colon; 31.8 µM in the experiment with HOP-92 NSCLC; 17.6 µM in the experiment on OVCAR-5 ovarian; 4.67 µM in the experiment on HCT-116 colon. Moreover, the TGI stood at 11.7 µM in the experiment with MOLT-4 leukemia; 9.53 µM with MDA-N; 6.82 µM in the experiment with SN12C renal; 6.66 µM in the experiment with ACHN renal; 13 µM in the experiment with SF-268 CNS; 7.63 µM with MDA-MB-435. In the experiment on HCC-2998 colon, the TGI is 3.17 µM.

On to `CC1(C)OC(=S)N(c2ccccc2)C12C=Cc1ccccc1O2` (stereo not drawn), for which the TGI in the experiment with SK-MEL-5 melanoma, in the experiment on SNB-19 CNS, in the experiment on COLO 205 colon, with HOP-92 NSCLC, in the experiment on OVCAR-5 ovarian and in the experiment with HCT-116 colon was more than 100 µM each time. In addition, the TGI is 76.5 µM in the experiment on MOLT-4 leukemia; more than 100 µM in the experiment with MDA-N; more than 100 µM with SN12C renal; more than 100 µM with ACHN renal; more than 100 µM in the experiment on SF-268 CNS; more than 100 µM in the experiment with MDA-MB-435. Further, the TGI with HCC-2998 colon was more than 100 µM.

As for `COC(=O)[C@]1(NC(=O)c2ccccc2)C[C@H]1C=O`, the TGI in the experiment on SK-MEL-5 melanoma, with SNB-19 CNS, in the experiment with COLO 205 colon, in the experiment on HOP-92 NSCLC, in the experiment on OVCAR-5 ovarian and in the experiment on HCT-116 colon was more than 100 µM in each case. Further, the TGI in the experiment on MOLT-4 leukemia, in the experiment with MDA-N, in the experiment on SN12C renal, with ACHN renal, in the experiment with SF-268 CNS and with MDA-MB-435 was more than 100 µM each time. For the same compound, in the experiment on HCC-2998 colon, the TGI is more than 100 µM.

Take `NC(=O)C(=CNC(=S)Nc1ccccc1)C(N)=O`: the TGI in the experiment on SK-MEL-5 melanoma, with SNB-19 CNS, in the experiment with COLO 205 colon, in the experiment on HOP-92 NSCLC, in the experiment on OVCAR-5 ovarian and in the experiment with HCT-116 colon was more than 100 µM in each case. Further, the TGI with MOLT-4 leukemia, in the experiment on MDA-N, with SN12C renal, with ACHN renal, with SF-268 CNS and in the experiment on MDA-MB-435 was more than 100 µM each time. The TGI with HCC-2998 colon was more than 100 µM.

For the compound `CC(=O)OCC(=O)O[C@@H]1[C@H]2[C@@H](OC(=O)c3ccccc3)[C@@H](C)C[C@]2(O)[C@H](OC(C)=O)[C@@]2(C)C(OC(C)=O)[C@]1(OC(C)=O)C[C@H]1C(=O)C(C)(C)C[C@@H]12` (stereo partly drawn), the TGI with SK-MEL-5 melanoma, in the experiment with SNB-19 CNS, with COLO 205 colon, with HOP-92 NSCLC, with OVCAR-5 ovarian and with HCT-116 colon was more than 50 µM each time. The TGI in the experiment with MOLT-4 leukemia, with MDA-N, in the experiment with SN12C renal, with ACHN renal, in the experiment on SF-268 CNS and in the experiment on MDA-MB-435 was more than 50 µM throughout. In the experiment with HCC-2998 colon, the TGI is more than 50 µM.

With `COc1cc2c(c(O)c1OC)C(=O)[C@@H]1CCC(=O)N1C2`, the TGI in the experiment with SK-MEL-5 melanoma, in the experiment on SNB-19 CNS, with COLO 205 colon, with HOP-92 NSCLC, in the experiment on OVCAR-5 ovarian and in the experiment on HCT-116 colon was more than 100 µM in each case. The TGI in the experiment on MOLT-4 leukemia, in the experiment with MDA-N, in the experiment on SN12C renal, with ACHN renal, in the experiment on SF-268 CNS and with MDA-MB-435 was more than 100 µM in each case. In the experiment on HCC-2998 colon, this compound gave a TGI of more than 100 µM.

Turning to `c1cc2nnc1SCCCSc1ccc(nn1)SCCCS2`, the TGI in the experiment on SK-MEL-5 melanoma was more than 100 µM; in the experiment with SNB-19 CNS, more than 93.2 µM; with COLO 205 colon, more than 81.3 µM; in the experiment with HOP-92 NSCLC, more than 100 µM; with OVCAR-5 ovarian, more than 100 µM; in the experiment on HCT-116 colon it was more than 54.1 µM. In addition, the TGI in the experiment with MOLT-4 leukemia is more than 100 µM; with MDA-N, more than 100 µM; in the experiment on SN12C renal it was more than 95.6 µM; with ACHN renal, more than 100 µM; in the experiment with SF-268 CNS, more than 100 µM; with MDA-MB-435, more than 100 µM. In the experiment on HCC-2998 colon, this compound showed a TGI of 99.5 µM.

On to `CC1(C)CC[C@]2(C)CC[C@]3(C)C(=CC[C@@H]4[C@@]5(C)CCC(=O)C(C)(C)[C@@H]5[C@H](O)C[C@]43C)[C@@H]2C1`, for which the TGI is 31.5 µM in the experiment on SK-MEL-5 melanoma; 30.6 µM in the experiment on SNB-19 CNS; 32 µM with COLO 205 colon; 31.7 µM in the experiment with HOP-92 NSCLC; 30.7 µM with OVCAR-5 ovarian; 30.5 µM in the experiment with HCT-116 colon. Further, the TGI with MOLT-4 leukemia is more than 100 µM; in the experiment with MDA-N, 29.7 µM; in the experiment on SN12C renal it was 29.5 µM; in the experiment with ACHN renal it was 30.6 µM; in the experiment with SF-268 CNS it was 32 µM; in the experiment with MDA-MB-435, 39.7 µM. The compound further yielded a TGI with HCC-2998 colon of 28.9 µM.

Regarding `c1ccc2oc(-c3ccc(-c4nc5ccccc5o4)c4c3CC4)nc2c1`, the TGI with SK-MEL-5 melanoma, with SNB-19 CNS, in the experiment on COLO 205 colon, in the experiment on HOP-92 NSCLC, in the experiment on OVCAR-5 ovarian and in the experiment with HCT-116 colon was more than 100 µM each time. In addition, the TGI with MOLT-4 leukemia, with MDA-N, in the experiment with SN12C renal, in the experiment on ACHN renal, in the experiment with SF-268 CNS and in the experiment on MDA-MB-435 was more than 100 µM throughout. The compound further returned a TGI in the experiment on HCC-2998 colon of more than 100 µM.

On to `COC(=O)c1cc2c(c3c1CC(Cc1ccccc1)C3=O)CCC2` (stereo not drawn), for which the TGI is more than 100 µM in the experiment with SK-MEL-5 melanoma; more than 100 µM in the experiment on SNB-19 CNS; more than 100 µM in the experiment with COLO 205 colon; 78 µM in the experiment on HOP-92 NSCLC; more than 100 µM in the experiment on OVCAR-5 ovarian; more than 100 µM with HCT-116 colon. In addition, the TGI with MOLT-4 leukemia, in the experiment with MDA-N, in the experiment on SN12C renal, in the experiment with ACHN renal, in the experiment with SF-268 CNS and with MDA-MB-435 was more than 100 µM throughout. In the experiment on HCC-2998 colon, the TGI is more than 100 µM.

On to `CC1(c2nc3ccccc3[nH]2)CCC(C(=O)O)C(C)(C)O1` (stereo not drawn), for which the TGI with SK-MEL-5 melanoma, with SNB-19 CNS, in the experiment with COLO 205 colon, in the experiment with HOP-92 NSCLC, in the experiment with OVCAR-5 ovarian and with HCT-116 colon was more than 100 µM in each case. The TGI in the experiment with MOLT-4 leukemia, in the experiment with MDA-N, with SN12C renal, in the experiment on ACHN renal, with SF-268 CNS and in the experiment on MDA-MB-435 was more than 100 µM each time. Moreover, the TGI in the experiment on HCC-2998 colon is more than 100 µM.

With `Cc1cn(CCCCC2=NCCCN2)c(=O)[nH]c1=O`, the TGI is more than 38.1 µM in the experiment on SK-MEL-5 melanoma; more than 66.2 µM in the experiment with SNB-19 CNS; more than 43.4 µM in the experiment with COLO 205 colon; 18.3 µM in the experiment on HOP-92 NSCLC; more than 42.5 µM in the experiment on OVCAR-5 ovarian; more than 29.3 µM with HCT-116 colon. For the same compound, the TGI in the experiment on MOLT-4 leukemia is more than 37.1 µM; in the experiment with MDA-N it was more than 100 µM; in the experiment with SN12C renal, more than 100 µM; with ACHN renal, more than 31 µM; in the experiment with SF-268 CNS it was more than 24.2 µM; in the experiment on MDA-MB-435 it was more than 33.8 µM. The TGI in the experiment on HCC-2998 colon is more than 32.9 µM.

These data come from PubChem BioAssay (NCI).
